Experimental data as given in patent US20190315806A1, “POLYMYXIN DERIVATIVE, PREPARATION METHOD AND APPLICATION THEREOF” (priority 2016, published 2019).
Values after ≈ are worked out from the molar mass of the structure shown. Where two headings read alike, the source gives them in different places. Where a SMILES comes first, the peptide text is derived from it. Bridges are numbered along the chain shown (N, C = ends). [ ]: non-standard residue; d: D form. The star is where a group is joined. Heptanoyl(6-Me) = CC(C)CCCCC(=O)*; Nonanoyl = CCCCCCCCC(=O)*; X2 = CC[C@H](C)CCCCC(=O)*; dDab = NCC[C@@H](N)C(=O)O; Heptanoyl = CCCCCCC(=O)*; Octanoyl = CCCCCCCC(=O)*; Dab = NCC[C@H](N)C(=O)O

Key:
Assay type in all cases: cell-based
[1] = tested on: Acinetobacter baumannii ATCC 19606
Method in brief: (§1)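 Agar dilution per CLSI; drug mixed into molten agar at twofold steps from 0.03 to 128 μg/mL (final). Inoculum 10^4 CFU/dot, multipoint. Incubation 35° C., 18–24 h; MIC = lowest concentration with no colonies.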

[2] = tested on: Escherichia coli ATCC 25922
Method in brief: as §1

[3] = tested on: Pseudomonas aeruginosa ATCC 27853
Method in brief: as §1

[4] = tested on: Staphylococcus epidermidis ATCC 12228
Method in brief: as §1

[5] = tested on: Klebsiella pneumoniae ATCC BAA-2146 (NDM-1); test: Antibacterial activity, MIC by dish double dilution method
Method in brief: as §1

[6] = Nephrotoxicity test, renal cytotoxicity by MTT method; settings: African green monkey
Description: African green monkey kidney cells (Vero cells) were cultured in MEM medium (Hyclone), 10% fetal calf serum (Invitrogen) was added before use, cultured at 37° C. under 5% CO2.
Experiment was carried out using MTT method. After digestion, cells in logarithmic growth phase were counted, then the cells were inoculated in a 96-well culture plate. After incubation for 24 h to be adherent, cells were treated with a concentration gradient of a compound of the invention (e.g., a compound prepared in the Embodiments) and the controls. After 72 h, the culture solution was removed, 100 uL of MTT reagent at a concentration of 0.5 mg/ml was added, the medium was removed after incubating for 3 hours in a 37° C. incubator. Add 150 μL DMSO solvent to each well, mix for 3 min, after which the absorbance at 570 nm (A) was measured with a microplate reader.
Cell viability %=(Adosed cell−Abackground)/(Acontrol cell−Abackground)×100%. The average value of 3 parallel wells was taken for each detection point, and the inhibition curve was drawn to calculate the IC50 value.
The African green monkey kidney cells (Vero cells) used in the experiment were from the Cell Resource Center of the Institute of Basic Medicine, Chinese Academy of Medical Sciences.

[7] = agar dilution, 10^4 CFU/dot, 18 to 24 hours at 35° C.

| Structure (SMILES) | MIC A. baumannii ATCC 19606 ([1]; ATCC 19606) [µg/mL] | MIC E. coli ATCC 25922 ([2]; ATCC 25922) [µg/mL] | MIC P. aeruginosa ATCC 27853 ([3]; ATCC 27853) [µg/mL] | MIC S. epidermidis ATCC 12228 ([4]; ATCC 12228) [µg/mL] | MIC K. pneumoniae ATCC BAA-2146 (NDM-1) ([5]; ATCC BAA-2146) [µg/mL] | IC50 at 72 h [6] [µg/mL] | MIC A. baumannii ATCC 19606 [1, 7] [µg/mL] | MIC E. coli ATCC 25922 [2, 7] [µg/mL] | MIC P. aeruginosa ATCC 27853 [3, 7] [µg/mL] | MIC S. epidermidis ATCC 12228 [4, 7] [µg/mL] | MIC K. pneumoniae ATCC BAA-2146 (NDM-1) [5, 7] [µg/mL] | IC50 at 72 h ([6]; MTT, 72 h treatment, 3 parallel wells, read-out: Renal cytotoxicity IC50, Vero cells) [µg/mL] |
| --- | --- | --- | --- | --- | --- | --- | --- | --- | --- | --- | --- | --- |
| CC[C@H](C)CCCCC(=O)N[C@@H](CCN)C(=O)N[C@H](C(=O)N[C@H](CCN)C(=O)N[C@H]1CCNC(=O)[C@H]([C@@H](C)O)NC(=O)[C@H](CCN)NC(=O)[C@H](CCN)NC(=O)[C@H]([C@@H](C)O)NC(=O)[C@@H](CC(C)C)NC(=O)[C@H](CCN)NC1=O)[C@@H](C)O [Compound 30, (S)-6-methyloctanoyl-Dab-Thr-D-Dab-ring(4-10)[Dab-Dab-D-Leu-Thr-Dab-Dab-Thr]] (X2-[Dab]T[dDab][Dab][Dab][dL]T[Dab][Dab]T; lactam 4-C) | 1 (≈ 0.864 µM) | 0.5 (≈ 0.432 µM) | 1 (≈ 0.864 µM) | >128 | 1 (≈ 0.864 µM) | 145 ± 12.1 (≈ 125 µM) |  |  |  |  |  |  |
| CC(C)CCCCC(=O)N[C@@H](CCN)C(=O)N[C@H](C(=O)N[C@H](CCN)C(=O)N[C@H]1CCNC(=O)[C@H]([C@@H](C)O)NC(=O)[C@H](CCN)NC(=O)[C@H](CCN)NC(=O)[C@H]([C@@H](C)O)NC(=O)[C@@H](CC(C)C)NC(=O)[C@H](CCN)NC1=O)[C@@H](C)O [Compound 31, 6-methylheptanoyl-Dab-Thr-D-Dab-ring(4-10)[Dab-Dab-D-Leu-Thr-Dab-Dab-Thr]] ({Heptanoyl(6-Me)}-[Dab]T[dDab][Dab][Dab][dL]T[Dab][Dab]T; lactam 4-C) | 0.5 (≈ 0.437 µM) | 0.5 (≈ 0.437 µM) | 1 (≈ 0.875 µM) | >128 | 0.5 (≈ 0.437 µM) | 288 ± 23.3 (≈ 252 µM) |  |  |  |  |  |  |
| CC[C@H](C)CCCCC(=O)N[C@@H](CCN)C(=O)N[C@H](C(=O)N[C@@H](CCN)C(=O)N[C@H]1CCNC(=O)[C@H]([C@@H](C)O)NC(=O)[C@H](CCN)NC(=O)[C@H](CCN)NC(=O)[C@H](CC(C)C)NC(=O)[C@@H](Cc2ccccc2)NC(=O)[C@H](CCN)NC1=O)[C@@H](C)O [Compound 42, (S)-6-methyloctanoyl-Dab-Thr-Dab-ring(4-10)[Dab-Dab-D-Phe-Leu-Dab-Dab-Thr]] (X2-[Dab]T[Dab][Dab][Dab][dF]L[Dab][Dab]T; lactam 4-C) |  |  |  |  |  |  | 1 (≈ 0.831 µM) | 0.5 (≈ 0.415 µM) | 2 (≈ 1.66 µM) | 32 (≈ 26.6 µM) | 0.5 (≈ 0.415 µM) | 71.3 ± 6.08 (≈ 59.2 µM) |
| CC(C)CCCCC(=O)N[C@@H](CCN)C(=O)N[C@H](C(=O)N[C@@H](CCN)C(=O)N[C@H]1CCNC(=O)[C@H]([C@@H](C)O)NC(=O)[C@H](CCN)NC(=O)[C@H](CCN)NC(=O)[C@H](CC(C)C)NC(=O)[C@@H](Cc2ccccc2)NC(=O)[C@H](CCN)NC1=O)[C@@H](C)O [Compound 43, 6-methylheptanoyl-Dab-Thr-Dab-ring(4-10)[Dab-Dab-D-Phe-Leu-Dab-Dab-Thr]] ({Heptanoyl(6-Me)}-[Dab]T[Dab][Dab][Dab][dF]L[Dab][Dab]T; lactam 4-C) | 0.5 (≈ 0.42 µM) | 0.5 (≈ 0.42 µM) | 2 (≈ 1.68 µM) | 64 (≈ 53.8 µM) |  | 159 ± 14.1 (≈ 134 µM) |  |  |  |  | 1 (≈ 0.841 µM) |  |
| CCCCCCCC(=O)N[C@@H](CCN)C(=O)N[C@H](C(=O)N[C@@H](CCN)C(=O)N[C@H]1CCNC(=O)[C@H]([C@@H](C)O)NC(=O)[C@H](CCN)NC(=O)[C@H](CCN)NC(=O)[C@H](CC(C)C)NC(=O)[C@@H](Cc2ccccc2)NC(=O)[C@H](CCN)NC1=O)[C@@H](C)O [Compound 44, octanoyl-Dab-Thr-Dab-ring(4-10)[Dab-Dab-D-Phe-Leu-Dab-Dab-Thr]] (Octanoyl-[Dab]T[Dab][Dab][Dab][dF]L[Dab][Dab]T; lactam 4-C) | 0.5 (≈ 0.42 µM) | 0.5 (≈ 0.42 µM) | 1 (≈ 0.841 µM) | 32 (≈ 26.9 µM) | 1 (≈ 0.841 µM) | 86.4 ± 8.31 (≈ 72.6 µM) |  |  |  |  |  |  |
| CCCCCCC(=O)N[C@@H](CCN)C(=O)N[C@H](C(=O)N[C@@H](CCN)C(=O)N[C@H]1CCNC(=O)[C@H]([C@@H](C)O)NC(=O)[C@H](CCN)NC(=O)[C@H](CCN)NC(=O)[C@H](CC(C)C)NC(=O)[C@@H](Cc2ccccc2)NC(=O)[C@H](CCN)NC1=O)[C@@H](C)O [Compound 45, heptanoyl-Dab-Thr-Dab-ring(4-10)[Dab-Dab-D-Phe-Leu-Dab-Dab-Thr]] (Heptanoyl-[Dab]T[Dab][Dab][Dab][dF]L[Dab][Dab]T; lactam 4-C) | 0.5 (≈ 0.425 µM) | 0.5 (≈ 0.425 µM) | 1 (≈ 0.851 µM) | 128 (≈ 109 µM) | 0.5 (≈ 0.425 µM) | 160 ± 13.6 (≈ 136 µM) |  |  |  |  |  |  |
| CCCCCCCCC(=O)N[C@@H](CCN)C(=O)N[C@H](C(=O)N[C@@H](CCN)C(=O)N[C@H]1CCNC(=O)[C@H]([C@@H](C)O)NC(=O)[C@H](CCN)NC(=O)[C@H](CCN)NC(=O)[C@H](CC(C)C)NC(=O)[C@@H](Cc2ccccc2)NC(=O)[C@H](CCN)NC1=O)[C@@H](C)O [Compound 46, nonanoyl-Dab-Thr-Dab-ring(4-10)[Dab-Dab-D-Phe-Leu-Dab-Dab-Thr]] (Nonanoyl-[Dab]T[Dab][Dab][Dab][dF]L[Dab][Dab]T; lactam 4-C) | 1 (≈ 0.831 µM) | 1 (≈ 0.831 µM) | 2 (≈ 1.66 µM) | 32 (≈ 26.6 µM) | 2 (≈ 1.66 µM) | 33.1 ± 2.64 (≈ 27.5 µM) |  |  |  |  |  |  |
| CC[C@H](C)CCCCC(=O)N[C@@H](CCN)C(=O)N[C@H](C(=O)N[C@@H](CCN)C(=O)N[C@H]1CCNC(=O)[C@H]([C@@H](C)O)NC(=O)[C@H](CCN)NC(=O)[C@H](CCN)NC(=O)[C@H]([C@@H](C)CC)NC(=O)[C@@H](Cc2ccccc2)NC(=O)[C@H](CCN)NC1=O)[C@@H](C)O [Compound 47, (S)-6-methyloctanoyl-Dab-Thr-Dab-ring(4-10)[Dab-Dab-D-Phe-Ile-Dab-Dab-Thr]] (X2-[Dab]T[Dab][Dab][Dab][dF]I[Dab][Dab]T; lactam 4-C) | 1 (≈ 0.831 µM) | 1 (≈ 0.831 µM) | 2 (≈ 1.66 µM) | 128 (≈ 106 µM) | 1 (≈ 0.831 µM) | 74.7 ± 6.13 (≈ 62.1 µM) |  |  |  |  |  |  |
| CC[C@H](C)CCCCC(=O)N[C@@H](CCN)C(=O)N[C@H](C(=O)N[C@H](CO)C(=O)N[C@H]1CCNC(=O)[C@H]([C@@H](C)O)NC(=O)[C@H](CCN)NC(=O)[C@H](CCN)NC(=O)[C@H]([C@@H](C)O)NC(=O)[C@@H](CC(C)C)NC(=O)[C@H](CCN)NC1=O)[C@@H](C)O [Compound 58, (S)-6-methyloctanoyl-Dab-Thr-D-Ser-ring(4-10)[Dab-Dab-D-Leu-Thr-Dab-Dab-Thr]] (X2-[Dab]T[dS][Dab][Dab][dL]T[Dab][Dab]T; lactam 4-C) | 0.06 (≈ 0.0524 µM) | 0.12 (≈ 0.105 µM) | 2 (≈ 1.75 µM) | >128 | 0.5 (≈ 0.437 µM) | 189 ± 11.3 (≈ 165 µM) |  |  |  |  |  |  |
| CC(C)CCCCC(=O)N[C@@H](CCN)C(=O)N[C@H](C(=O)N[C@H](CO)C(=O)N[C@H]1CCNC(=O)[C@H]([C@@H](C)O)NC(=O)[C@H](CCN)NC(=O)[C@H](CCN)NC(=O)[C@H]([C@@H](C)O)NC(=O)[C@@H](CC(C)C)NC(=O)[C@H](CCN)NC1=O)[C@@H](C)O [Compound 59, 6-methylheptanoyl-Dab-Thr-D-Ser-ring(4-10)[Dab-Dab-D-Leu-Thr-Dab-Dab-Thr]] ({Heptanoyl(6-Me)}-[Dab]T[dS][Dab][Dab][dL]T[Dab][Dab]T; lactam 4-C) | 0.12 (≈ 0.106 µM) | 0.25 (≈ 0.221 µM) | 2 (≈ 1.77 µM) | >128 | 0.5 (≈ 0.442 µM) | 318 ± 25.6 (≈ 281 µM) |  |  |  |  |  |  |
